{"source": "patent US20260284209A1", "about": "“POLYPEPTIDE ADJUVANTS AND USES THEREOF” (BOARD OF REGENTS, THE UNIVERSITY OF TEXAS SYSTEM, priority 2023, published 2026)", "key": {"[1]": {"system": "cGAS-STING, MyD88 and canonical NF-κB pathways in M2 BMDMs", "assay": "Western blotting of cGAS-STING, MyD88 and canonical NF-κB pathways", "type": "cell-based, mouse", "conditions": "excessive ER stress induction", "protocol": "A western blot was performed as described in Example 1, to assess whether the cationic polypeptides activate innate immune sensors in APCs."}, "[2]": {"system": "ER stress markers BiP, EIF2α, CHOP, XBP1 in bone marrow-derived macrophages", "assay": "ER stress markers (western blotting, XBP1 RT-qPCR)", "type": "cell-based, mouse", "description": "M2 BMDMs (1.5×10^7 cells/100 mm^2 petri dish) or cancer cells (2×10^6 cells per 6-well plates) were treated with the experimental solutions. To evaluate inhibitory conditions, cells were pre-treated with CsA (10 μM, TCI America) for 3 h, or co-treated with 4-PBA (5 mM in phosphate-buffered saline [PBS], Tocris Bioscience, USA) and chloroquine (10 μg/mL, Alfa Aesar, USA). Each protein was extracted by using RIPA buffer containing 1% protease inhibitor and 1% phosphatase inhibitor cocktail. Protein concentrations were adjusted to 3 mg/mL by using a BCA kit, with FBS used as a standard. Electrophoresis was carried out by loading proteins (40 μg) into each lane of a sodium dodecyl sulfate-polyacrylamide gel (SDS-PAGE) gel, after which the proteins were transferred to a polyvinylidene fluoride membrane. After blocking, the PVDF membrane was treated with the corresponding primary antibody, and then washed with TBS-T three times before the treatment with the secondary antibody. The blot signals were visualized with a Chemidoc system (ChemiDoc MP imaging system, BioRad, USA)."}}, "data": [{"substance": "tunicamycin", "values": [{"measurement": "activation of MyD88 and STING in macrophages", "setting": "[1]", "value": "inhibited activation of MyD88 and STING in macrophages"}, {"measurement": "ER stress / ER stress markers", "setting": "[2]", "value": "detrimental levels"}]}]}
